Patent publication US12385839B2, “Use of protein in predicting drug properties” (priority 2021, dated 2025)
Where two headings read alike, the source gives them in different places.

Assays:
[1] = cited from earlier work; for LD50: modelling table; for Toxicity: toxicity grade by LD50, trailing figure = number of pesticides in group
[2] = target: T1, human serum albumin (HSA) (Homo sapiens, UniProt P02768); experiment: Fluorescence emission spectrum (quenching) of HSA with carbamate pesticides; type: binding; details: for Ksv (37°) / ΔG(37°) / Binding distance/r / Number of binding sites/n: modelling table; for Kq / Ksv / n (number of binding sites) / Kd: pH 7.4; for R (binding distance): Förster energy transfer; for fluorescence of HSA quenched by pesticide: titration of pesticide; for ΔH^0 / ΔS^0: Van't Hoff, 296-310 K
T1 sequence (P02768 25-609): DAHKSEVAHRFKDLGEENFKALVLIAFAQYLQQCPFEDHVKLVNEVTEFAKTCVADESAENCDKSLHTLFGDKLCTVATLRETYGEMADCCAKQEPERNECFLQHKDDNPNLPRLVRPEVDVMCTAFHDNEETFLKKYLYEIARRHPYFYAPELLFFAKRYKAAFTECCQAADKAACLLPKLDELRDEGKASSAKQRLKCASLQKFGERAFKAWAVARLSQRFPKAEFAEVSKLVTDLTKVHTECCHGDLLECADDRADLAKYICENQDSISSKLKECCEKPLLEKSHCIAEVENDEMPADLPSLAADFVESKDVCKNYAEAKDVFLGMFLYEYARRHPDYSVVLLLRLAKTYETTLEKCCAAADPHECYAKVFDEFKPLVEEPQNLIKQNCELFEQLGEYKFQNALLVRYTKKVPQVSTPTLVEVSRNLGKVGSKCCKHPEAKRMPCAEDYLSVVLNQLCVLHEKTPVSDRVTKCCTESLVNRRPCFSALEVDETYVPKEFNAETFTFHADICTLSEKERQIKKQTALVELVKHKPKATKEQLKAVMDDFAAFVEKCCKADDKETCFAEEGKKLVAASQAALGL
Description: the mixed solution to be tested was preheated at […] for 3 minutes, and the emission spectrum of HSA with carbamate pesticides was measured at 300-500 nm . The excitation wavelength was set at 280 nm , and the slit width for both excitation and emission was 15 nm; the HSA concentration was kept constant at 5×10^−7 M, and the pesticide concentration was (0-105)×10^−7 M.
The internal filtering effect of fluorescence signal was corrected according to the following formula: Fcor=Fobsexp[(Aex+Aem)/2] (1);
in this formula, Fcor and Fobs represent corrected fluorescence signal and observed fluorescence signal, respectively, and Aex and Aem represent absorbance of the mixed solution to be tested at excitation wavelength and emission wavelengths, respectively; the quenching constant, number of binding sites, binding constant, free energy and binding distance of different drugs were obtained by fluorescence emission spectra, and a BP neural network model was obtained. Specifically, they were obtained as follows:
There is a linear relationship between F0/F and [Q] to distinguish whether it is static quenching or dynamic quenching. The fluorescence quenching data are analyzed by Stern-Volmer equation to clarify the quenching mechanism: F0/F=1+KSV[Q]=1+Kqτ0[Q] (2);
in the formula, F0 and F are fluorescence signals […] quencher, respectively. Ksv is Stern-Volmer quenching constant; Kq is a quenching rate constant of biomolecules; τ0 is the average lifetime of biomolecules without quencher (about 10^−8 s); [Q] is the concentration of quencher.
The maximum dynamic quenching rate constant of all kinds of quenchers on polymers was 2.0×10^10 L·mol^−1·s^−1. Static quenching and dynamic quenching could be judged according to this value. If K^q was greater than 2.0×10^10 L·mol^−1·s^−1, it belonged to static quenching. Otherwise, it belonged to dynamic quenching.
In this part, the binding sites and binding constants between carbamate pesticides and HSA were calculated. The following formula was used to calculate the number of binding sites (n) and the binding constant (Ka) of carbamate pesticides and HSA: log[(F0−F)/F]=log Ka+nlog[Q] (3);
The interactions between biological molecules and drug molecules were weak intermolecular interactions, including hydrogen bonds, van der Waals forces, electrostatic forces and hydrophobic interactions. By using Van't Hoff equation, the thermodynamic constants of drug-protein interaction were obtained, and the main types of drug-protein interaction were judged according to the changes of binding constants under different conditions. LnK=−ΔH^0/RT+ΔS^0/R (4); ΔG^0=ΔH^0−TΔS^0 (5);
There is a relationship among energy transfer efficiency E, distance r between energy donor and energy receptor and energy transfer distance R0. E=1−F/F0=R0^6/(R0^6+r^6) (6);
E represents the transfer efficiency between donor and receptor, r is the average distance between donor and receptor, and R0 is the critical distance when the transfer efficiency is 50%. R0^6=8.79×10^−K^2N^−4φJ (7)
K^2 is the orientation related to the geometry of donor and receptor of dipole. For random orientation in fluid, K^2=2/3; N is the average refractive index of the medium in the wavelength range with obvious spectral overlap, and the refractive index of water and organic matter is 1.336; φ is the quantum yield of donor, and the quantum yield of tryptophan in HSA is about 0.118; J represents the influence of spectral overlap between the emission spectrum of the donor and the absorption spectrum of the receptor, and can be calculated by the following formula: j=ΣF(λ)ϵ(λ)λ^4Δλ/ΣF(λ) Δλ (8);
F(λ) is the corrected fluorescence signal of the donor in the wavelength range from λ to (λ+Δλ), while ϵ(λ) is the extinction coefficient of the receptor at λ.

[3] = target: T1, human serum albumin (HSA); experiment: Circular dichroism spectrum, secondary structure (α-helix content) of HSA; details: HSA 2×10^−6 M
Description: the mixed solution to be tested was preheated at […] for 2-5 minutes, and the CD spectrum of HSA was recorded in the wavelength range of 200-500 nm . The concentration of HSA was kept at 2×10^−6 M, and the pesticide was (0-20)×10^−6 m. Firstly, HSA was measured, and then the ratio of HSA to pesticides needed to be determined specifically, which was preliminarily determined according to the ratio of 1:1, 1:2 and 1:3.
According to the following equation, the result of CD spectrum was usually expressed as the mean residue ellipticity (MRE), and the unit was deg·cm^2·dmol^−1. MRE=ObservedCD(mdeg)/(10Cpnl) (9);
in which Cp is the molar concentration of protein, n is the number (585) of amino acid residues, and 1 is the path length (1 mm). The α helicity of free and bound HSA is calculated from MRE values using the following formula: α−Helix(%)=[(−MRE208−4000)×100]/(33000-4000) (10)
in which the MRE208 is the MRE value observed at 208 nm , 4000 is the MRE value of random coil conformation at 208 nm , and […] is the MRE value of pure α helix at 208 nm .

[4] = 296 K, read-out: Ka (binding constant)
[5] = 303 K, read-out: Ka (binding constant)
[6] = 310 K, read-out: Ka (binding constant)

Structure (SMILES) | LD50 [1] [mg/kg] | Toxicity [1] | Ksv (37°) [2] | ΔG(37°) [2] | ΔG^0 ([2]; 296 K) [kcal/mol] | Kq ([2]; 296 K) | Ksv ([2]; 296 K) | n (number of binding sites) ([2]; 296 K) | ΔG^0 ([2]; 303 K) [kcal/mol] | Kq ([2]; 303 K) | Ksv ([2]; 303 K) | n (number of binding sites) ([2]; 303 K) | ΔG^0 ([2]; 310 K) [kcal/mol] | R (binding distance) ([2]; 310 K) [nm] | Kq ([2]; 310 K) | Ksv ([2]; 310 K) | n (number of binding sites) ([2]; 310 K) | fluorescence of HSA quenched by pesticide ([2]; 310 K) | ΔH^0 [2] [kcal/mol] | ΔS^0 [2] [J · mol^−1 · K^−1] | also measured
CNC(=O)ON=C(C)SC [Methomyl, methomyl] | 14.7 | Highly | 52883.69408 | −21.14 | -3.8554 | 3.401 ± 0.068 10^12 M^−1s^−1 | 3.401 ± 0.068 10^4 M^−1 | 0.661 ± 0.003 | -4.4534 | 4.025 ± 0.136 10^12 M^−1s^−1 | 4.025 ± 0.136 10^4 M^−1 | 0.727 ± 0.008 | -5.0514 | 2.145 | 5.288 ± 0.093 10^12 M^−1s^−1 | 5.288 ± 0.093 10^4 M^−1 | 0.766 ± 0.002 | quenched | 21.433 | 357.453 | Kd [2, 4]: 1460 µM; Kd [2, 5]: 579 µM; Kd [2, 6]: 283 µM; Binding distance/r [2]: 2.145; Number of binding sites/n [2]: 0.7657; α-helix contents ([3]; 5:1 (Pesticide:HSA)): 50.756%; α-helix contents ([3]; 10:1 (Pesticide:HSA)): 49.970%
CNC(=O)Oc1cccc(C)c1 [Metolcarb, metolcarb] | 268 | Moderately | 44415.60221 | −16.22 | -3.1766 | 3.261 ± 0.020 10^12 M^−1s^−1 | 3.261 ± 0.020 10^4 M^−1 | 0.564 ± 0.012 | -3.5268 | 3.415 ± 0.159 10^12 M^−1s^−1 | 3.415 ± 0.159 10^4 M^−1 | 0.587 ± 0.001 | -3.8772 | 2.525 | 4.442 ± 0.118 10^12 M^−1s^−1 | 4.442 ± 0.118 10^4 M^−1 | 0.616 ± 0.003 | quenched | 11.633 | 209.338 | Kd ([2]; Ka (binding constant), 296 K): 4450 µM; Kd ([2]; Ka (binding constant), 303 K): 2950 µM; Kd ([2]; Ka (binding constant), 310 K): 1820 µM; Binding distance/r [2]: 2.525; Number of binding sites/n [2]: 0.6156; α-helix contents ([3]; 5:1 (Pesticide:HSA)): 53.549%; α-helix contents ([3]; 10:1 (Pesticide:HSA)): 53.215%
CNC(=O)O/N=C(\SC)C(=O)N(C)C [Oxamyl, oxamyl] | 2.5 | Highly | 66054.55780 | −22.83 | -4.8592 | 5.229 ± 0.185 10^12 M^−1s^−1 | 5.229 ± 0.185 10^4 M^−1 | 0.774 ± 0.016 | -5.158 | 5.735 ± 0.073 10^12 M^−1s^−1 | 5.735 ± 0.073 10^4 M^−1 | 0.789 ± 0.004 | -5.4567 | 2.564 | 6.605 ± 0.058 10^12 M^−1s^−1 | 6.605 ± 0.058 10^4 M^−1 | 0.807 ± 0.003 | quenched | 7.7713 | 178.534 | Kd [2, 4]: 255 µM; Kd [2, 5]: 195 µM; Kd [2, 6]: 141 µM; Binding distance/r [2]: 2.564; Number of binding sites/n [2]: 0.8074; α-helix contents ([3]; 5:1 (Pesticide:HSA)): 50.883%; α-helix contents ([3]; 10:1 (Pesticide:HSA)): 49.354%
CNC(=O)Oc1cc(C)cc(C(C)C)c1 [Promecarb, promecarb] | 35 | Highly | 58172.07681 | −21.38 | -3.5213 | 2.409 ± 0.154 10^12 M^−1s^−1 | 2.409 ± 0.154 10^4 M^−1 | 0.645 ± 0.004 | -4.316 | 3.705 ± 0.060 10^12 M^−1s^−1 | 3.705 ± 0.060 10^4 M^−1 | 0.704 ± 0.008 | -5.1107 | 2.316 | 5.817 ± 0.219 10^12 M^−1s^−1 | 5.817 ± 0.219 10^4 M^−1 | 0.769 ± 0.009 | quenched | 30.0872 | 475.061 | Kd ([2]; Ka (binding constant), 296 K): 2430 µM; Kd ([2]; Ka (binding constant), 303 K): 822 µM; Kd ([2]; Ka (binding constant), 310 K): 241 µM; Binding distance/r [2]: 2.316; Number of binding sites/n [2]: 0.7688; α-helix contents ([3]; 5:1 (Pesticide:HSA)): 48.610%; α-helix contents ([3]; 10:1 (Pesticide:HSA)): 48.538%
